The values that follow come from patent US8278315B2, “Radiotherapy method using x-rays” (priority 2002, dated 2012).

Data set [1] concerns B-DNA. The note with it: cited from earlier work.
The conditions of data set [2]: mouse studies, compared with DOX; cited from earlier work.
In data set [3] the test system is DOX-resistant cells. The note with it: cited from earlier work.
Data set [4] relates to neuroblastoma lines. The data set is described as follows: nuclear chemotherapy: ^77BrdC on neuroblastoma lines. It counts as cell-based. The procedure: An investigation of a method called “nuclear chemotherapy” was done many years previously at Sloan-Kettering Research Institute in New York, by Dr. Chia-Gee Wang and Dr. Lawrence Helson. The research was done using ^77BrdC, where ^77Br (half-life at 57 hours) would undergo a K-capture and deliver 10^6 or more Gy at a small distance. The […] of BrdC to BrdU can be blocked by the non-toxic H4U and therefore excluding BrdC from being incorporated into the DNA pool. Certain transformed cells, on the other hand, would make use of a more primitive kinase to bypass the H4U blockage, and incorporate BrdC to form BrdU. The ^77Br was made by adding an a particle to ^75As in a facility in the U.K. ^77Br was obtained in liquid solution, and ^77BrdC was made. […] The Auger electrons from the ^77BrdU delivered such a high dose of the DNA duplex that no cellular repair was possible.

The nature of data set [5]: loss of UV absorbance at 260 nm after X-rays from a silver target. It counts as physicochemical. The note with it: 20 μg/ml, per 100 Rads. An excerpt: The phenanthroline groups on Dichlorotris(1,10-phenanthroline) ruthenium (II) hydrate absorb in the UV region with a peak absorbance at or near 260 nm. Loss or damage to these groups can be estimated by determining the UV absorbance before and after treatment with X-rays generated by a silver target which is optimum for Ru. Over several experiments replicating treatments with 100 Rad or using increasing amounts of X-rays between 50 Rads and 1000 Rads a loss of UV absorbance at 260 nm of 0.5% to 1% per 100 Rads has been determined.

The conditions of data set [6]: DOX-treated patients; cited from earlier work.

As for [Cl2(Me2SO)4Ru] [trans-form], the “rate of DNA binding” value in data set [1] (compared with the cis-form) is recorded as “binds more rapidly”.
As to `C[C@@H]1O[C@@H](O[C@H]2C[C@](O)(C(=O)CO)Cc3c(O)c4c(c(O)c32)C(=O)c2ccccc2C4=O)[C@H](I)[C@H](O)[C@H]1O` [ANN, annamycin], the cardiotoxicity result in data set [2] is on record as “less cardiotoxic”. The cross resistance result in data set [3] is “lack of cross resistance”.
On to `CS(C)=O.CS(C)=O.CS(C)=O.CS(C)=O.[Cl][Ru][Cl]` [cis-form of [Cl2(Me2SO)4Ru], [Cl2(Me2SO)4Ru]], for which, in data set [1], the “effect on conformation of B-DNA” value is “does not significantly affect the conformation of B-DNA” and the “effect on thermal stability of B-DNA” value is reported as “increases its thermal stability”.
Turning to `Nc1nc(=O)n(C2CC(O)C(CO)O2)cc1[77Br]` (stereo not drawn) [^77BrdC], the “effect on sensitive tumor lines” value in data set [4] (sensitive lines, no immediate cell death) is “stopped mitosis”. Besides, the “sensitivity of neuroblastoma lines” value in data set [4] (ten neuroblastoma lines tested, H4U blockage) is on record as “two of the ten lines were sensitive”.
For the compound `O.[Cl][Ru][Cl].c1cnc2c(c1)ccc1cccnc12.c1cnc2c(c1)ccc1cccnc12.c1cnc2c(c1)ccc1cccnc12` [Dichlorotris(1,10-phenanthroline) ruthenium (II) hydrate], the phenanthroline groups damaged in data set [5] is listed as ~10^14 per ml.
`COc1cccc2c1C(=O)c1c(O)c3c(c(O)c1C2=O)C[C@@](O)(C(=O)CO)C[C@@H]3O[C@H]1C[C@H](N)[C@H](O)[C@H](C)O1` [DOX, doxorubicin]: in data set [6], the frequency of relapse is ≤ 50%.
